This passage reports IC50 results from patent US10660877B2 (BRISTOL-MYERS SQUIBB COMPANY, priority 2016, dated 2020).

Like-named read-outs stand apart in the source and are kept apart here.

In one assay the target is human TLR8 (Homo sapiens (Human), UniProt Q9NR97). Description: TLR8 inhibition reporter assay (HEK-Blue cells, SEAP reporter, R848 stimulation).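 Also: compounds tested from 0.05 nM to 50 µM, 22 h at 37 °C, SEAP measured with HEK-Blue Detection, inhibition relative to agonist plus DMSO versus a known inhibitor.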 A general note: A reporter such as luciferase makes a cellular process visible.
Another assay addresses human TLR7 (Homo sapiens (Human), UniProt Q9NYK1). As to the kind of experiment: TLR7 inhibition reporter assay (HEK-Blue cells, SEAP reporter, gardiquimod stimulation). It is filed as cell-based.
For the next assay, the target named is human TLR9 (Homo sapiens (Human), UniProt Q9NR96). Description: TLR9 inhibition reporter assay (HEK-Blue cells, SEAP reporter, ODN2006 stimulation).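 Also: compounds tested over 0.05 nM to 50 µM, 22 h incubation, inhibition taken as SEAP signal drop from agonist plus DMSO wells toward a known inhibitor control.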
[1] abbreviates: read-out: TLR8 IC50, HEK-Blue cells overexpressing human TLR8, R848 15.9 μM.
The mark [2] stands for this setting: HEK-Blue cells overexpressing human TLR7, gardiquimod 7.5 μM.
[3] abbreviates: read-out: TLR9 IC50, HEK-Blue cells overexpressing human TLR9, ODN2006 5 nM.
[4] abbreviates: read-out: TLR8 IC50, HEK-Blue cells, R848 15.9 μM.
Setting [5] is: HEK-Blue cells, gardiquimod 7.5 μM.
Setting [6] is: read-out: TLR9 IC50, HEK-Blue cells, ODN2006 5 nM.

What is called IC50 is the concentration at which inhibition is half-maximal.

human TLR9, sequence (Q9NR96 26-1032): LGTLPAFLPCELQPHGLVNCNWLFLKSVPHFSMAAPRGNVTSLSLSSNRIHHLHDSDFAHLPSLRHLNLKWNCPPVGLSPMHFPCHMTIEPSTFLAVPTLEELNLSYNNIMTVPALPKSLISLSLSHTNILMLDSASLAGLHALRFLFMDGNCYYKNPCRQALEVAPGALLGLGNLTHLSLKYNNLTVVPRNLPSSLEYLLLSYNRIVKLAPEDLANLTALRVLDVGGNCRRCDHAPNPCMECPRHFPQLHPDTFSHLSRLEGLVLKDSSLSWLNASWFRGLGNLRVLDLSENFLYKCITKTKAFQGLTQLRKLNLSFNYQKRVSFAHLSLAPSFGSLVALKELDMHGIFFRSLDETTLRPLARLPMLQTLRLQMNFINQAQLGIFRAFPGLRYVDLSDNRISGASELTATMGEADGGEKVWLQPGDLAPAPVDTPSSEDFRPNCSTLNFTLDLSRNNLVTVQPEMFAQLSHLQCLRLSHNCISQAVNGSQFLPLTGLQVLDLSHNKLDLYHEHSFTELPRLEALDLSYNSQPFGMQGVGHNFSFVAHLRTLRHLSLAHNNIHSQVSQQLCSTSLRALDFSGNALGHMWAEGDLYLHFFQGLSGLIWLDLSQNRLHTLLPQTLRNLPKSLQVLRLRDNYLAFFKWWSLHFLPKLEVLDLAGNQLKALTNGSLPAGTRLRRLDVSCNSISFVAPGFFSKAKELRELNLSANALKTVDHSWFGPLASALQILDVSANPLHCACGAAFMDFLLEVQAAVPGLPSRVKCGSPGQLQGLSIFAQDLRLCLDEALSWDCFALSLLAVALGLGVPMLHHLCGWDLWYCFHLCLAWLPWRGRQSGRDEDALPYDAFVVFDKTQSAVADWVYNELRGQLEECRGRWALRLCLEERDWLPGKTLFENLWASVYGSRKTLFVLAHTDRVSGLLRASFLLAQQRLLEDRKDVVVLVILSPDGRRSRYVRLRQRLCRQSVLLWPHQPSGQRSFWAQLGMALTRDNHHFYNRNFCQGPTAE
human TLR8, sequence (Q9NR97 27-1041): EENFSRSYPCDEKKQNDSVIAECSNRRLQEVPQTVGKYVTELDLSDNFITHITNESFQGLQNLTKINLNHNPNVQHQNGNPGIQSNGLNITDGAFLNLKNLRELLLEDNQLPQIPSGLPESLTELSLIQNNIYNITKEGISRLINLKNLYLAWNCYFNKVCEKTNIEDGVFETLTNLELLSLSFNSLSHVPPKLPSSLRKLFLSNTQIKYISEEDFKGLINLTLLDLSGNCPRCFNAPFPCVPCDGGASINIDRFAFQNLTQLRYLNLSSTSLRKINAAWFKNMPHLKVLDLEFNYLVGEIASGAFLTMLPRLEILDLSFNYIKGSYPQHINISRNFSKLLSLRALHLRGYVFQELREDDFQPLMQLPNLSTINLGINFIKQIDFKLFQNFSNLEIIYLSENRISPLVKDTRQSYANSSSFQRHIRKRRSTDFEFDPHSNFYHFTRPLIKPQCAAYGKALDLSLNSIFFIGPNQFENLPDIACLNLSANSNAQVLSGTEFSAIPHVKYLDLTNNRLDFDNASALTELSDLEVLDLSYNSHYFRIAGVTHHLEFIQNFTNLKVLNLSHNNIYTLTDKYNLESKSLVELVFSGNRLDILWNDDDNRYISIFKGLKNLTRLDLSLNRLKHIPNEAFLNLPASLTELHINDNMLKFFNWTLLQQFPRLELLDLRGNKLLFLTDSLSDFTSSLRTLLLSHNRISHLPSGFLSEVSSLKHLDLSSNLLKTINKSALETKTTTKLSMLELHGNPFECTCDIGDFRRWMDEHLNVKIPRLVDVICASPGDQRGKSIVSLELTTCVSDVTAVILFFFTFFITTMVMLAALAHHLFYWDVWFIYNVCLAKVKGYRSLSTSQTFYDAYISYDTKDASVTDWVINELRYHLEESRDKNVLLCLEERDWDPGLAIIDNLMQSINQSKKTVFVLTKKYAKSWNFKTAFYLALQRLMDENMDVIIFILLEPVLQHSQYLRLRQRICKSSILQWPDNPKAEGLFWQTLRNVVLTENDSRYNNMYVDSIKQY
human TLR7, sequence (Q9NYK1 27-1049): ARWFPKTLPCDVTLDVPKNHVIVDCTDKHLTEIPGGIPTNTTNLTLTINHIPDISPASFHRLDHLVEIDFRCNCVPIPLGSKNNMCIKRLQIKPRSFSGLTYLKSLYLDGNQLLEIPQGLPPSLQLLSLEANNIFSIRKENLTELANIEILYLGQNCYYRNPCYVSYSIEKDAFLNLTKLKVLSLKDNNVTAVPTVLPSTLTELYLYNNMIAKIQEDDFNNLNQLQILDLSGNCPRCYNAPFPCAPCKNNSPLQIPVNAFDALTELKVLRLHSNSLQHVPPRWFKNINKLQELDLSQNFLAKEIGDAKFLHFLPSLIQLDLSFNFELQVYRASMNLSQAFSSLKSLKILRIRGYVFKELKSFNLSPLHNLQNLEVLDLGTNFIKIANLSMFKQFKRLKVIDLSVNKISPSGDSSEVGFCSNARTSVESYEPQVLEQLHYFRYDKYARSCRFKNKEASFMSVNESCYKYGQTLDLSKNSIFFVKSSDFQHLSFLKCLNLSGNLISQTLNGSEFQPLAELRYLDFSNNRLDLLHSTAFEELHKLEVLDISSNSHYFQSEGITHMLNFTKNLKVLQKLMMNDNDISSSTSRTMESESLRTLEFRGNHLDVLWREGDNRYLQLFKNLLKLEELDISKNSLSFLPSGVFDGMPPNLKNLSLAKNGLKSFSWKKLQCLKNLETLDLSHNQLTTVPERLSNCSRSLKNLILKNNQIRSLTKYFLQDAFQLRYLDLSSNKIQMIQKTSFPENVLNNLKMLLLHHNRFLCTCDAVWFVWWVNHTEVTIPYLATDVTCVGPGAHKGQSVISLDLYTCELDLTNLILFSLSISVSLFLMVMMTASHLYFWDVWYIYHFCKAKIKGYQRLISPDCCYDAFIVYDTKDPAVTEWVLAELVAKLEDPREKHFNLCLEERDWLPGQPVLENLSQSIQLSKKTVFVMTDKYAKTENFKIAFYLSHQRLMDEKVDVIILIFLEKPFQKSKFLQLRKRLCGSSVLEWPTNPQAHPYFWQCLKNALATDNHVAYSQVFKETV

Regarding `Cc1cc(-c2[nH]c3ccc(C4CCN(C(=O)CC(F)(F)F)CC4)cc3c2C(C)C)ccn1` [Example 600, 3,3,3-trifluoro-1-(4-(3-isopropyl-2-(2-methylpyridin-4-yl)-1H-indol-5-yl)piperidin-1-yl)propan-1-one], the half-inhibitory concentration (IC50) at human TLR8 (setting [1]) is 269 nM; at human TLR7 (setting [2]) it was 120 nM; at human TLR9 (setting [3]), greater than 50000 nM.

For `CCc1c(-c2ccncc2)[nH]c2ccc(C3CCN(Cc4cnc(Nc5ccccn5)s4)CC3)cc12` [Example 822, 5-((4-(3-ethyl-2-(pyridin-4-yl)-1H-indol-5-yl)piperidin-1-yl)methyl)-N-(pyridin-2-yl)thiazol-2-amine], the half-inhibitory concentration (IC50) turned out to be 12900 nM at human TLR8 (setting [4]), 841 nM against human TLR7 (setting [5]) and 1090 nM on human TLR9 (setting [6]).

In the case of `Cc1cc(-c2[nH]c3ccc(C4CCN(CC(=O)NCCC(C)C)CC4)cc3c2C(C)C)cc(C)n1` [Example 237, 2-(4-(2-(2,6-dimethylpyridin-4-yl)-3-isopropyl-1H-indol-5-yl)piperidin-1-yl)-N-isopentylacetamide], the IC50 is 51.1 nM on human TLR8 (setting [1]), 24.9 nM on human TLR7 (setting [2]) and 1890 nM on human TLR9 (setting [3]).

On to `CNCC(=O)N1CCC(c2ccc3[nH]c(-c4cc(C)nc(C)c4F)c(C(C)C)c3c2)CC1` [Example 622, 1-(4-(2-(3-fluoro-2,6-dimethylpyridin-4-yl)-3-isopropyl-1H-indol-5-yl)piperidin-1-yl)-2-(methylamino)ethan-1-one], for which the concentration for half-maximal inhibition (IC50) is 6.1 nM on human TLR8 (setting [1]), 1.2 nM at human TLR7 (setting [2]) and 4010 nM at human TLR9 (setting [3]).

`Cc1cc(-c2[nH]c3ccc(C4CCN(C(C)C)CC4)cc3c2C(C)C)ccn1` [Example 869, 3-isopropyl-5-(1-isopropylpiperidin-4-yl)-2-(2-methylpyridin-4-yl)-1H-indole]: the IC50 worked out at 12.3 nM on human TLR8 (setting [4]), 13.2 nM against human TLR7 (setting [5]) and 803 nM at human TLR9 (setting [6]).

Take `Cc1cc(-c2[nH]c3ccc(C4CCN(C(=O)CCC5CCNCC5)CC4)cc3c2C(C)C)ccn1` [Example 568, 1-(4-(3-isopropyl-2-(2-methylpyridin-4-yl)-1H-indol-5-yl)piperidin-1-yl)-3-(piperidin-4-yl)propan-1-one]: the IC50 on human TLR8 (setting [1]) came out at 13.6 nM; at human TLR7 (setting [2]), 11.9 nM; at human TLR9 (setting [3]), 572 nM.

For `Cc1cc(-c2[nH]c3ccc(C4CCN(C(=O)C5CC(=O)N(C)C5)CC4)cc3c2C(C)C)ccn1` (stereo not drawn) [Example 619, 4-(4-(3-isopropyl-2-(2-methylpyridin-4-yl)-1H-indol-5-yl)piperidine-1-carbonyl)-1-methylpyrrolidin-2-one], the IC50 was 67.9 nM on human TLR8 (setting [1]), 51.1 nM at human TLR7 (setting [2]) and greater than 50000 nM at human TLR9 (setting [3]).

For `Cc1cc(-c2[nH]c3ccc(C4CCN(C(=O)CN5CCCS5(=O)=O)CC4)cc3c2C(C)C)cc(C)n1` [Example 152, 1-(4-(2-(2,6-dimethylpyridin-4-yl)-3-isopropyl-1H-indol-5-yl)piperidin-1-yl)-2-(1,1-dioxidoisothiazolidin-2-yl)ethan-1-one], the IC50 on human TLR8 (setting [1]) stood at 49.8 nM; against human TLR7 (setting [2]) it was 5 nM; at human TLR9 (setting [3]) it was 30400 nM.

As to `Cc1cc(-c2[nH]c3ccc(C4CCN(C(=O)C(C)(C)C#N)CC4)cc3c2C(C)C)ccn1` [Example 615, 3-(4-(3-isopropyl-2-(2-methylpyridin-4-yl)-1H-indol-5-yl)piperidin-1-yl)-2,2-dimethyl-3-oxopropanenitrile], the IC50 is 243 nM at human TLR8 (setting [1]), 80.9 nM against human TLR7 (setting [2]) and 12200 nM on human TLR9 (setting [3]).

For the compound `CCC(=O)N1CCC(c2ccc3[nH]c(-c4cc(C)nc(C)c4)c(C(C)C)c3c2)CC1` [Example 206, 1-(4-(2-(2,6-dimethylpyridin-4-yl)-3-isopropyl-1H-indol-5-yl)piperidin-1-yl)propan-1-one], the figures for the IC50 on human TLR8 (setting [1]), at human TLR7 (setting [2]) and on human TLR9 (setting [3]) were 100 nM, 5.4 nM and 41900 nM, respectively.

Turning to `Cc1cc(-c2[nH]c3ccc(C4CCNCC4)cc3c2C(C)C)c(C)cn1` [Example 31, 2-(2,5-dimethylpyridin-4-yl)-3-isopropyl-5-(piperidin-4-yl)-1H-indole], the values for the IC50 at human TLR8 (setting [1]), against human TLR7 (setting [2]) and on human TLR9 (setting [3]) were 1 nM, 2.6 nM and 963 nM, respectively.

With `Cc1cc(-c2[nH]c3ccc(C4CCN(C(=O)Cn5ccc(C6CC6)n5)CC4)cc3c2C(C)C)cc(C)n1` [Example 162, 2-(3-cyclopropyl-1H-pyrazol-1-yl)-1-(4-(2-(2,6-dimethylpyridin-4-yl)-3-isopropyl-1H-indol-5-yl)piperidin-1-yl)ethan-1-one], the IC50 on human TLR8 (setting [1]) was determined as 129 nM; against human TLR7 (setting [2]) it was 18.5 nM; at human TLR9 (setting [3]), 16200 nM.

Take `Cc1cc(-c2[nH]c3ccc(C4CCN(C(=O)CNCC5CCCO5)CC4)cc3c2C(C)C)cc(C)n1` (stereo not drawn) [Example 373, 1-(4-(2-(2,6-dimethylpyridin-4-yl)-3-isopropyl-1H-indol-5-yl)piperidin-1-yl)-2-(((tetrahydrofuran-2-yl)methyl)amino)ethan-1-one]: the IC50 on human TLR8 (setting [1]) is 17.5 nM; against human TLR7 (setting [2]), 2.5 nM; at human TLR9 (setting [3]) it was 429 nM.

As for `CCc1c(-c2ccnc(C)c2)[nH]c2ccc(C3CCN(C)CC3)cc12` [Example 670, 3-ethyl-5-(1-methylpiperidin-4-yl)-2-(2-methylpyridin-4-yl)-1H-indole], the half-maximal inhibitory concentration (IC50) on human TLR8 (setting [1]) stood at 64.8 nM; against human TLR7 (setting [2]), 68.1 nM; on human TLR9 (setting [3]), 663 nM.

Regarding `COCCN(C)CC(=O)N1CCC(c2ccc3[nH]c(-c4cc(C)nc(C)c4)c(C(C)C)c3c2)CC1` [Example 148, 1-(4-(2-(2,6-dimethylpyridin-4-yl)-3-isopropyl-1H-indol-5-yl)piperidin-1-yl)-2-((2-methoxyethyl)(methyl)amino)ethan-1-one], the IC50 came to 9.8 nM at human TLR8 (setting [1]), 2.2 nM against human TLR7 (setting [2]) and 900 nM at human TLR9 (setting [3]).

`CCOC(=O)N1CCC(c2ccc3[nH]c(-c4ccnc(C)c4)c(C(C)C)c3c2)CC1` [Example 560, ethyl 4-(3-isopropyl-2-(2-methylpyridin-4-yl)-1H-indol-5-yl)piperidine-1-carboxylate]: the IC50 on human TLR8 (setting [1]) was 607 nM; at human TLR7 (setting [2]), 247 nM; on human TLR9 (setting [3]) it was 10400 nM.

For `Cc1cc(-c2[nH]c3ccc(C4CCN(CC(=O)N5CCC(F)CC5)CC4)cc3c2C(C)C)cc(C)n1` [Example 283, 2-(4-(2-(2,6-dimethylpyridin-4-yl)-3-isopropyl-1H-indol-5-yl)piperidin-1-yl)-1-(4-fluoropiperidin-1-yl)ethan-1-one], the IC50 is 8.9 nM at human TLR8 (setting [1]), 2.6 nM at human TLR7 (setting [2]) and 248 nM on human TLR9 (setting [3]).

Consider `Cc1cc(-c2[nH]c3ccc(C4CCN(CC(=O)N(C(C)C)C(C)C)CC4)cc3c2C(C)C)cc(C)n1` [Example 253, 2-(4-(2-(2,6-dimethylpyridin-4-yl)-3-isopropyl-1H-indol-5-yl)piperidin-1-yl)-N,N-diisopropylacetamide], for which the IC50 at human TLR8 (setting [1]) was 37.1 nM; against human TLR7 (setting [2]) it was 19.7 nM; at human TLR9 (setting [3]), 1340 nM.

On to `Cc1cc(-c2[nH]c3ccc(C4CCN(CC(=O)N5CCNC(=O)C5)CC4)cc3c2C(C)C)cc(C)n1` [Example 272, 4-(2-(4-(2-(2,6-dimethylpyridin-4-yl)-3-isopropyl-1H-indol-5-yl)piperidin-1-yl)acetyl)piperazin-2-one], for which the IC50 on human TLR8 (setting [1]) stood at 3.1 nM; at human TLR7 (setting [2]), 1.2 nM; on human TLR9 (setting [3]), 46 nM.

Consider `Cc1cc(-c2[nH]c3ccc(C4CCN(C(=O)C5CCOC(C(C)C)C5)CC4)cc3c2C(C)C)ccn1` (stereo not drawn) [Example 598, (4-(3-isopropyl-2-(2-methylpyridin-4-yl)-1H-indol-5-yl)piperidin-1-yl)(2-isopropyltetrahydro-2H-pyran-4-yl)methanone], for which the values for the concentration for half-maximal inhibition (IC50) on human TLR8 (setting [1]), on human TLR7 (setting [2]) and at human TLR9 (setting [3]) were 374 nM, 99.6 nM and 9940 nM, respectively.

`Cc1cc(-c2[nH]c3ccc(C4CCN(C(=O)CNCC(C)C)CC4)cc3c2C(C)C)cc(C)n1` [Example 338, 1-(4-(2-(2,6-dimethylpyridin-4-yl)-3-isopropyl-1H-indol-5-yl)piperidin-1-yl)-2-(isobutylamino)ethan-1-one]: the results for the IC50 on human TLR8 (setting [1]), at human TLR7 (setting [2]) and at human TLR9 (setting [3]) were 23.5 nM, 5.8 nM and 553 nM, respectively.

Regarding `Cc1cc(-c2[nH]c3ccc(C4CCN(Cc5c[nH]nc5C)CC4)cc3c2C(C)C)cc(C)n1` [Example 439, 2-(2,6-dimethylpyridin-4-yl)-3-isopropyl-5-(1-((3-methyl-1H-pyrazol-4-yl)methyl)piperidin-4-yl)-1H-indole], the values for the IC50 at human TLR8 (setting [1]), at human TLR7 (setting [2]) and on human TLR9 (setting [3]) were 6.3 nM, 7.7 nM and 202 nM, respectively.

`Cc1cc(-c2[nH]c3ccc(C4CCN(C(=O)CNC5(C)CCC5)CC4)cc3c2C(C)C)cc(C)n1` [Example 353, 1-(4-(2-(2,6-dimethylpyridin-4-yl)-3-isopropyl-1H-indol-5-yl)piperidin-1-yl)-2-((1-methylcyclobutyl)amino)ethan-1-one]: the figures for the IC50 at human TLR8 (setting [1]), against human TLR7 (setting [2]) and on human TLR9 (setting [3]) were 9.5 nM, 4 nM and 429 nM, respectively.

Take `Cc1cc(-c2[nH]c3ccc(C4CCN(CC(=O)N(CCO)Cc5ccc(F)cc5)CC4)cc3c2C(C)C)cc(C)n1` [Example 300, 2-(4-(2-(2,6-dimethylpyridin-4-yl)-3-isopropyl-1H-indol-5-yl)piperidin-1-yl)-N-(4-fluorobenzyl)-N-(2-hydroxyethyl)acetamide]: the 50% inhibitory concentration (IC50) at human TLR8 (setting [1]) came to 70.7 nM; on human TLR7 (setting [2]) it was 28.8 nM; on human TLR9 (setting [3]) it was 1660 nM.

Turning to `Cc1cc(-c2[nH]c3ccc(C4CCN(C(=O)C(F)(F)F)CC4)cc3c2C(C)C)ccn1` [Example 614, 2,2,2-trifluoro-1-(4-(3-isopropyl-2-(2-methylpyridin-4-yl)-1H-indol-5-yl)piperidin-1-yl)ethan-1-one], the half-maximal inhibitory concentration (IC50) at human TLR8 (setting [1]) was found to be 469 nM; on human TLR7 (setting [2]), 119 nM; on human TLR9 (setting [3]) it was 17500 nM.
